Where two headings read alike, the source gives them in different places.
Assays:
[1] = system: human platelet rich plasma; assay type: cell-based
Experimental: To determine the effects brought about on platelets by the compounds used in Examples 16 through 18, the test for recovery of function of platelets was carried out by the following procedure.
First, a solution of 20,000 ppm of isopropyl decyl maleate in methanol (Example 19), a solution of 20,000 ppm of isopropyl tetradecyl maleate in methanol (Example 20), a solution of 20,000 ppm of isopropyl decyl itaconate in methanol (Example 21), a solution of 20,000 ppm of di-2-ethylhexyl maleate in methanol (Control 24), a solution of 20,000 ppm of di-2-ethylhexyl phthalate in methanol (Control 25), a solution of 20,000 ppm of dinormal decyl phthalate in methanol (Control 26), and methanol containing no added compound (blank) were prepared. These solutions were severally added to human […] in a fixed amount of 1/100. […]
To determine the effects exerted on platelets by 2-ethylhexyl isostearate used in Example 24 and 2-ethylhexyl 2-ethylhexanoate used in Example 25, a test for the recovery of function of platelets was carried out by following the procedure of Examples 19 through 21. […] The procedure of Examples 19 through 21 was repeated on these solutions to determined maximum capacity for aggregation with respect to 50µM ADP and 10µg/ml collagen in the presence of 0.2 mg of fibrinogen per ml.

erythrocytes = conditions: dissolving from flexible vinyl chloride resin container into preserved blood; Blood (1984); cited from earlier work
[2] = system: human concentrated red cells; assay: Hemolysis of stored CRC, reagent added as Tween 80/physiological saline emulsion; plasma hemoglobin by TMB method; assay type: cell-based; conditions: final concentration 0.5 mM, emulsion, 4°C, 4 weeks
Experimental: Isopropyl isotridecyl maleate was added to a 2000ug/ml polyoxyethylene monooleate (reagent-grade product of Wako Junyaku K.K. marketed under trademark designation of "Tween 80")/physiological saline mixed solution in such an amount to be contained therein in a final concentration of 4mM. A 0.2ml aliquot of the resultant emulsion was added to a human concentrated red cells (hereinafter referred to as "CRC") adjusted in advance to a hematocrit value of about 70% so as to be contained therein in a final concentration indicated in Table 1. The resulting liquid was placed in a stoppered polypropylene tube and left standing at rest at 4°C for 4 weeks. At the end of this standing, it was tested for plasma hemoglobin concentration by the TMB method (Clin. Chem., 23, 749-(1977)).
An emulsion was prepared by following the procedure of Example 1, except that isopropyl decyl maleate was used in place of isopropyl-isotridecyl maleate. A CRC sample incorporating the emulsion was left standing and thereafter tested for plasma hemoglobin concentration.
Emulsions were prepared by following the procedure of Excample 1, except that di-2-ethylhexyl phthalate (Control 1) and diisopropyl maleate, a carboxylic ester compound deviating from the scope of the present invention (Control 2) were respectively used in place of isopropyl isotridecyl maleate. CRC samples severally incorporating the emulsions were left standing and, thereafter, tested for plasma hemoglobin concentration.
Glycerine-l-butyl-3-isostearyl ether was added to a 2000 ug/ml polyoxyethylene monooleate (regent-grade product of Wako Junyaku K.K. marketed under trademark designation of "Tween 80")/ physiological saline mixed solution so as to be contained therein in a final concentration of 4 mM. A 0.2ml aliquot of the resultant emulsion was added to CRC adjusted in advance to a hematocrit value of about 70% so as to be contained therein in a final concentration indicated in Table 3. The resultant liquid was placed in a stoppered polypropylene tube and left standing at 4°C for 4 weeks. Thereafter, it was tested for plasma hemoglobin concentration by following the procedure of Example 1.
An emulsion was prepared by following the procedure of Example 5, except that glycerine-1,3-dioctyl ether was used in place of glycerine- l-butyl-3-isostearyl ether. A CRC sample incorporating the resultant emulsion was left standing and, thereafter, tested for plasma hemoglobin concentration. Controls 7 and 8
Emulsions were prepared by following the procedure of Example 5, except that di-2-ethylhexyl phthalate (Control 7) and glycerine monooctyl ether, an ether compound deviating from the scope of the present invention, (Control 8) were respectively used in place of glycerine-l-butyl-3-isostearyl ether. CRC samples incorporating the emulsions were left standing and, thereafter, tested for plasma hemoglobin concentration.
Isopropyl isolaurate was dispersed in a 2000 ug/ml poloxyethylene monooleate (reagent-grade product of Wako Junyaku K.K. marketed under trademark designation of "Tween 80")/physiological saline mixed solution so as to be contained therein in a concentration of 4 mM. A 0.2-ml aliquot of the resultant emulsion was added to CRC adjusted in advance to a hematocrit value of about 70% so as to be contained therein in a final concentration indicated in Table 5. The resultant liquid was placed in a stoppered polypropylene tube and left standing at 4°C for 4 weeks. Thereafter, it was tested for plasma hemoglobin concentration by following the procedure of Example 1.
An emulsion was prepared by following the procedure of Example 9, except that 2-ethylhexyl isostearate was used in place of isopropyl isolaurate. A CRC sample incorporating the resultant emulsion was left standing and, thereafter, tested for plasma hemoglobin concentration.

platelets = conditions: Jouranl of Japan blood Transfusion Society, 28(3) 282 (1981); cited from earlier work
[3] = system: human platelet rich plasma; assay: Platelet aggregation in platelet rich plasma (Aggrecoder); assay type: cell-based; conditions: for activity at 400 µM: Homo sapiens, Platelet, 2 h, 40 mM methanol solution added in 1/100, room temperature 2 hours, relative to blank
Experimental: A 40 mM methanol solution of isopropyl isotridecyl maleate (Example 13), a 40 mM methanol solution of glycerine-l-butyl-3-isostearyl ether (Example 14), a 40 mM methanol solution of isopropyl isolaurate (Example 15), a 40 mM methanol solution of di-2-ethylhexyl phthalate (Control 19) and methanol containing no added compound (Control 20) were severally added to a human platelet rich plasma (count of platelets about 300,000/mm ) in a fixed amount of 1/100, left standing at room temperature for 2 hours, and tested for platelet aggregation by the use of an instrument (product of Kyoto Daiichikagaku K.K. marketed under "Aggrecoder").
The percentage of transmittance of light through the solution of platelet rich plasma containing a given sample to the maximum transmittance of light through the same solution of platelet rich plasma not containing the sample (blank) was reported as the ratio of aggregation of the sample. As aggregation inducers, 5 µM ADP (adenosine diphosphoric acid) and 5 ug/ml collagen were used.

Question: With CCCCC(CC)COC(=O)C(CC)CCCC (stereo not shown) [2-ethylhexyl 2-ethylhexanoate] as the compound, how does the “action on recovery of ability of platelet aggregation (in words)” value [1] read?
Answer: produced no discernible action to curb recovery of the ability of platelet aggregation

Question: For CCCCC(CC)COC(=O)CCCCCCCCCCCCCCC(C)C (stereo not shown) [2-ethylhexyl isostearate], which “action on recovery of ability of platelet aggregation (in words)” value [1] is on record?
Answer: produced no discernible action to curb recovery of the ability of platelet aggregation

Question: With CCCCC(CC)COC(=O)c1ccccc1C(=O)OCC(CC)CCCC (stereo not shown) [Di-2-ethylhexyl phthalate, reference compound] as the compound, how does the “effect on hemolysis of erythrocytes (in words)” value (erythrocytes) read?
Answer: serves to hinder the hemolysis of erythrocytes

Question: What about the “Hemoglobin concentration in plasma” value ([2]; Table 1) of the same compound?
Answer: 41 Mg/ml

Question: What about the “Hemoglobin concentration in plasma” value ([2]; Table 3) of the same compound?
Answer: 62 mg/mL

Question: And the “Hemoglobin concentration in plasma” value ([2]; Table 5)?
Answer: 35 mg/mL

Question: And the “effect on aggregating ability of platelets (in words)” value (platelets)?
Answer: hinders the aggregating ability of platelets

Question: What about the activity at 400 µM ([3]; read-out: Ratio of platelet aggregation, aggregation inducer 5 µM ADP) of the same compound?
Answer: 92.1%

Question: What about the activity at 400 µM ([3]; read-out: Ratio of platelet aggregation, aggregation inducer 5 µg/ml collagen) of the same compound?
Answer: 89.6%

Question: What about the “effect on aggregating ability of platelets (in words)” value ([3]; summary of Table 7) of the same compound?
Answer: produced a discernible effect of curbing the recovery of the aggregating ability of platelets

— patent publication EP0334956A1, “HEMOLYSIS INHIBITOR AND MEDICAL RESIN COMPOSITION, MEDICAL IMPLEMENT, AND BLOOD-PRESERVING FLUID CONTAINING THE SAME” (KAO CORPORATION, priority 1986, dated 1988)
